Data published in US11673916B2, “Neuroprotective peptides and methods of their use” (University of Pittsburgh—Of the Commonwealth System of …, priority 2020, dated 2023).

Tested on: MCAo mouse model of ischemic stroke
Assay: Murine neurological score (MNS) after MCAo
Assay type: in vivo
Settings: 50 minutes left MCAo, IP injection at one and six hours post-reperfusion, versus scrambled control (FIG. 6E)
Description: To analyze neurological deficits following MCA stroke, testing was performed by a blinded experimenter on additional cohorts, both at baseline (all initial scores were 0) and on post-stroke days 1, 2, 3, 5, 7, 10, 14, 21, 28, 35, and 42. An objective murine neurological score (Table 3) was assigned on each date, ranging from 0 (no neurological deficit) to 8 (stroke-related death) (Yeh et al., J Neurosci. 37: 5648-5658, 2017).
Twenty-four hours following cerebral reperfusion after MCAo, total infarct ratios were analyzed (FIG. 6B) in tetrazolium chloride-stained brain sections (FIGS. 6B and 6C). […] Preparation of peptides, MCAo surgery and injection, as well as infarct analysis were all randomized and performed blindly. A second cohort of mice was subjected to 50-minute MCAo, followed by TAT-DP-2 or TAT-Sc-2 injection at one and six-hours post-reperfusion (FIG. 6A). A different, blinded observer then analyzed each animal and assigned an objective murine neurological score (MNS; Table 3) to each mouse over a 42-day period. As the MNS is based solely on characteristic motor deficits developed following left MCAo, all animals initially scored zero on the scale.

For “YGRKKRRQRRRSIDSFTS [TAT-DP-2, TAT-linked declustering peptide 2]”, which “murine neurological score (MNS) over 42 days post-MCAo” value is on record?
The value was “significant preservation of favorable neurological score”.
